Where “and” joins values, the source holds several entries; their conditions need not be identical. Equal values may be shown once. Toxic doses and inconclusive results are not listed. No stated cut-off is given here; in the data, active means T/C of 150% or more; inactive means T/C below 125%.
Test system: L1210 leukemia ip in BDF1 mice, survival T/C
Assay: NCI In Vivo Anticancer Drug Screen. Data for tumor model L1210 Leukemia (intraperitoneal) in B6D2F1 (BDF1) mice
Details: endpoint: mean survival time, higher = longer survival
Procedure, shortened: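 Transplantable tumor model; survival measured in treated vs vehicle control mice. Value = treated/control.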

[1] = dose: 100.0 mg/kg/injection, schedule: Q01DX001 (ip), vehicle: saline
[2] = dose: 200.0 mg/kg/injection, schedule: Q01DX001 (ip), vehicle: saline
[3] = dose: 400.0 mg/kg/injection, schedule: Q01DX001 (ip), vehicle: saline
[4] = dose: 100.0 mg/kg/injection, schedule: Q01DX001 (ip), vehicle: other
[5] = dose: 200.0 mg/kg/injection, schedule: Q01DX001 (ip), vehicle: other
[6] = dose: 400.0 mg/kg/injection, schedule: Q01DX001 (ip), vehicle: other
[7] = dose: 100.0 mg/kg/injection, schedule: Q01DX009 (ip), vehicle: Klucel (hydroxypropylcellulose) (HPC)
[8] = dose: 100.0 mg/kg/injection, schedule: Q04DX003 (ip), vehicle: Klucel (hydroxypropylcellulose) (HPC)
[9] = dose: 200.0 mg/kg/injection, schedule: Q01DX009 (ip), vehicle: Klucel (hydroxypropylcellulose) (HPC)
[10] = dose: 200.0 mg/kg/injection, schedule: Q04DX003 (ip), vehicle: Klucel (hydroxypropylcellulose) (HPC)
[11] = dose: 100.0 mg/kg/injection, schedule: Q01DX009 (ip), vehicle: saline with Tween-80
[12] = dose: 100.0 mg/kg/injection, schedule: Q04DX003 (ip), vehicle: saline with Tween-80
[13] = dose: 200.0 mg/kg/injection, schedule: Q01DX009 (ip), vehicle: saline with Tween-80
[14] = dose: 200.0 mg/kg/injection, schedule: Q04DX003 (ip), vehicle: saline with Tween-80
[15] = dose: 400.0 mg/kg/injection, schedule: Q01DX009 (ip), vehicle: saline with Tween-80
[16] = dose: 400.0 mg/kg/injection, schedule: Q04DX003 (ip), vehicle: saline with Tween-80

Measured: T/C

O=C(NC12CC3CC(CC(C3)C1)C2)C(O)C(O)C(O)C(O)CO (stereo not drawn)
inactive: [1] 110 % of control | [2] 100 % of control | [3] 100 % of control

CCS(=O)(=O)c1ccc(NC(=O)OC2CCCCCCC2)cc1
inactive: [4] 93 % of control | [5] 93 % of control | [6] 93 % of control

CN1C2CCC(O)C1CC2 (stereo not drawn)
inactive: [1] 102 % of control | [2] 102 % of control

C#CCNc1c(C)cccc1C
inactive: [7] 107 % of control | [8] 98 % of control | [9] 102 % of control | [10] 97 % of control

c1ccc(-n2ncnn2)cc1
inactive: [1] 98 % of control | [2] 95 % of control | [3] 90 % of control

CC(=O)N1C(=O)NC(=O)C1(C)c1ccc(Cl)s1 (stereo not drawn)
inactive: [11] 96 % of control | [12] 100 % of control | [13] 103 % of control | [14] 97 % of control | [15] 91 % of control | [16] 88 % of control

O=C1CCCN1Cl
inactive: dose: 100.0 mg/kg/injection, schedule: Q01DX001 (ip), vehicle: saline with Tween-80 96 % of control | dose: 200.0 mg/kg/injection, schedule: Q01DX001 (ip), vehicle: saline with Tween-80 96 % of control | dose: 400.0 mg/kg/injection, schedule: Q01DX001 (ip), vehicle: saline with Tween-80 96 % of control

Cc1cc([N+](=O)[O-])c2ccccc2c1N
inactive: [11] 117 % of control | [13] 98 % of control | [15] 105 % of control

CCOC(=O)CCC(C(=O)OCC)c1nc2ccccc2[nH]c1=O (stereo not drawn)
inactive: [8] 108 % of control | [10] 108 % of control | dose: 400.0 mg/kg/injection, schedule: Q04DX003 (ip), vehicle: Klucel (hydroxypropylcellulose) (HPC) 96 % of control

O=C(CCCCC(=O)c1ccc(O)cc1O)c1ccc(O)cc1O
inactive: [4] 97 % of control | dose: 100.0 mg/kg/injection, schedule: Q04DX003 (ip), vehicle: other 103 % of control | [5] 95 % of control | dose: 200.0 mg/kg/injection, schedule: Q04DX003 (ip), vehicle: other 100 % of control | [6] 97 % of control | dose: 400.0 mg/kg/injection, schedule: Q04DX003 (ip), vehicle: other 106 % of control

OC(/N=C/c1ccccc1)C(Cl)(Cl)Cl (stereo not drawn)
inactive: dose: 100.0 mg/kg/injection, schedule: Q04DX002 (ip), vehicle: Klucel (hydroxypropylcellulose) (HPC) 103 % of control | dose: 200.0 mg/kg/injection, schedule: Q04DX002 (ip), vehicle: Klucel (hydroxypropylcellulose) (HPC) 88 % of control | dose: 400.0 mg/kg/injection, schedule: Q04DX002 (ip), vehicle: Klucel (hydroxypropylcellulose) (HPC) 114 % of control

CN(C)C=NC1(c2ccccc2)CCCCC1
inactive: dose: 25.0 mg/kg/injection, schedule: Q01DX009 (ip), vehicle: saline with Tween-80 96 % of control | dose: 50.0 mg/kg/injection, schedule: Q01DX009 (ip), vehicle: saline with Tween-80 96 % of control

OC1c2ccccc2-c2c(F)c(F)c(F)c(F)c21 (stereo not drawn)
inactive: dose: 50.0 mg/kg/injection, schedule: Q01DX001 (ip), vehicle: carboxymethylcellulose (CMC) 96 % of control | dose: 100.0 mg/kg/injection, schedule: Q01DX001 (ip), vehicle: carboxymethylcellulose (CMC) 97 % of control | dose: 200.0 mg/kg/injection, schedule: Q01DX001 (ip), vehicle: carboxymethylcellulose (CMC) 94 % of control | dose: 400.0 mg/kg/injection, schedule: Q01DX001 (ip), vehicle: carboxymethylcellulose (CMC) 111 % of control

CCCNC1=C(N2CC2)C(=O)C(NCCC)=C(N2CC2)C1=O
inactive: dose: 0.09 mg/kg/injection, schedule: Q04DX003 (ip), vehicle: saline 96 % of control and 109 % of control | dose: 0.18 mg/kg/injection, schedule: Q04DX003 (ip), vehicle: saline 97 % of control and 106 % of control | dose: 0.37 mg/kg/injection, schedule: Q01DX001 (ip), vehicle: saline 108 % of control | dose: 0.37 mg/kg/injection, schedule: Q04DX003 (ip), vehicle: saline 100 % of control and 103 % of control | dose: 0.39 mg/kg/injection, schedule: Q01DX009 (ip), vehicle: saline 95 % of control and 102 % of control | dose: 0.75 mg/kg/injection, schedule: Q01DX001 (ip), vehicle: saline 108 % of control | dose: 0.75 mg/kg/injection, schedule: Q04DX003 (ip), vehicle: saline 105 % of control and 108 % of control | dose: 0.78 mg/kg/injection, schedule: Q01DX009 (ip), vehicle: saline 107 % of control and 118 % of control | dose: 1.5 mg/kg/injection, schedule: Q01DX001 (ip), vehicle: saline 117 % of control | dose: 1.5 mg/kg/injection, schedule: Q04DX003 (ip), vehicle: saline 100 % of control | dose: 1.56 mg/kg/injection, schedule: Q01DX009 (ip), vehicle: saline 107 % of control and 116 % of control | dose: 1.56 mg/kg/injection, schedule: Q04DX003 (ip), vehicle: saline 103 % of control | dose: 3.0 mg/kg/injection, schedule: Q01DX001 (ip), vehicle: saline 118 % of control | dose: 3.0 mg/kg/injection, schedule: Q04DX003 (ip), vehicle: saline 118 % of control and 120 % of control | dose: 3.12 mg/kg/injection, schedule: Q04DX003 (ip), vehicle: saline 93 % of control | dose: 6.0 mg/kg/injection, schedule: Q01DX001 (ip), vehicle: saline 90 % of control | dose: 6.25 mg/kg/injection, schedule: Q04DX003 (ip), vehicle: saline 98 % of control | dose: 12.0 mg/kg/injection, schedule: Q01DX001 (ip), vehicle: saline 110 % of control | dose: 12.5 mg/kg/injection, schedule: Q04DX003 (ip), vehicle: saline 115 % of control | dose: 25.0 mg/kg/injection, schedule: Q04DX003 (ip), vehicle: saline 113 % of control

O=C(CCCN1CCN(c2ccccc2)CC1)c1ccc(F)cc1
inactive: dose: 12.5 mg/kg/injection, schedule: Q01DX009 (ip), vehicle: saline 122 % of control | dose: 25.0 mg/kg/injection, schedule: Q01DX009 (ip), vehicle: saline 106 % of control | dose: 50.0 mg/kg/injection, schedule: Q01DX009 (ip), vehicle: saline 114 % of control | dose: 100.0 mg/kg/injection, schedule: Q01DX009 (ip), vehicle: saline 111 % of control | dose: 200.0 mg/kg/injection, schedule: Q01DX009 (ip), vehicle: saline 103 % of control

Cc1ccccc1SC(=O)Nc1cc(C(F)(F)F)ccc1Cl
inactive: [7] 100 % of control | [9] 98 % of control | dose: 400.0 mg/kg/injection, schedule: Q01DX009 (ip), vehicle: Klucel (hydroxypropylcellulose) (HPC) 100 % of control

CSc1nnn(C(C)(C)C)n1
inactive: dose: 100.0 mg/kg/injection, schedule: Q01DX001 (ip), vehicle: acetone 100 % of control | dose: 200.0 mg/kg/injection, schedule: Q01DX001 (ip), vehicle: acetone 91 % of control

C/C=C1\CN2CCc3c(n(C)c4ccccc34)C2CC1C(=O)OC (stereo not drawn)
inactive: [12] 101 % of control | [14] 88 % of control | [16] 106 % of control
